Test results reported in patent US7943340B2, “Fungal dipeptidyl peptidase IV (DPPIV) enzyme for reagent use” (priority 2003, dated 2011).

Columns and labels:
fuLAP2 = type: biochemical, Aspergillus fumigatus; conditions: inhibitor 40 μM; Leu-MCA substrate
Procedure: (§1) Inhibitors and metallic cations were pre-incubated with the enzymes for 15 min at 37° C. Then, Leu-AMC at a 5 mM final concentration was added. After further incubation for 60 min, enzyme activity was measured as described above. The inhibitors and their concentrations tested purified LAPs were: 500 μM amastatin (Bachem), 40 μM benzamidine (Sigma), 500 μM bestatin (Bachem), 5 mM/l mM EDTA (Sigma). 100 μM E-64 (L-trans-epoxysuccinyl-leu-4-guanidinobutylamide) (Bachem), 100 μM leupeptin (Sigma), 5 mM/1 mM ortho-phenanthroline (Sigma), 500 μM p-chloromercuribenzoic acid (Sigma), 100 μM pepstatin A (Sigma), 40 μM PMSF (Sigma), 20 μM TLCK (Roche Diagnostics), and 20 μM TPCK (Roche Diagnostics).

[1] = target: T1, pkLAP (microsomal LAP from porcine kidney) (Sus scrofa, UniProt P15145); experiment: Effect of chemical reagents (inhibitors, metallic cations) on LAP activity with Leu-AMC; type: biochemical; conditions: inhibitor 40 μM; Leu-MCA substrate
T1 construct: purchased Sigma; host or cells: porcine kidney
T1 sequence (P15145 1-963): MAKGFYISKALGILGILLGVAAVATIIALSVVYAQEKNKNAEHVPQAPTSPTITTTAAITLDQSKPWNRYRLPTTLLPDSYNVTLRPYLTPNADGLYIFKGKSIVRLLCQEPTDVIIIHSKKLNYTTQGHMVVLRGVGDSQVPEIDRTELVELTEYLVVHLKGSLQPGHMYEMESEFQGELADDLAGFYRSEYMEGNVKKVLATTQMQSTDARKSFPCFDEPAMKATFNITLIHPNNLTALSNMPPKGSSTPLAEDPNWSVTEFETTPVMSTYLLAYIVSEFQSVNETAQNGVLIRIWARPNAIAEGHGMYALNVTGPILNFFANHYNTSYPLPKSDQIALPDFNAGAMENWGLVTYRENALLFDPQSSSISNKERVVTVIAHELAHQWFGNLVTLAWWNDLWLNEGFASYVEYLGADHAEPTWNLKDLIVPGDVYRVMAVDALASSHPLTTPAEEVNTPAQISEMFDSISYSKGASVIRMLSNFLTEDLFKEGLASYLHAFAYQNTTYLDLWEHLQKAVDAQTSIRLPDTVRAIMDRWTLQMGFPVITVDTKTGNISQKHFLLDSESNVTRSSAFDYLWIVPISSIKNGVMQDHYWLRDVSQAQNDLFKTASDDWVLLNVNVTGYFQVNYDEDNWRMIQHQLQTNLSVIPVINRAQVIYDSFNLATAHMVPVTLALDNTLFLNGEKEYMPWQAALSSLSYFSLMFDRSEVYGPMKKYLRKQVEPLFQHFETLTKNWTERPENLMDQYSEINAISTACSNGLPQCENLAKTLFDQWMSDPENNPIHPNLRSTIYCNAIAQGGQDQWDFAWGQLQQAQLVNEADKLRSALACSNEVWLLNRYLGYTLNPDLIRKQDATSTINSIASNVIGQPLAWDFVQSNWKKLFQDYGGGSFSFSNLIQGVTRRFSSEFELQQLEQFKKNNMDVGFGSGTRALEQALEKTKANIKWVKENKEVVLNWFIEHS
Procedure: as §1

[2] = system: all the LAPs tested (ruLAP1, ruLAP2, fuLAP1, fuLAP2, pkLAP); type: biochemical; conditions: Leu-AMC 5 mM; amastatin 500 μM; ortho-phenantroline 1 and 5 mM; others as
Method in brief: (§2)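 Purified LAPs pre-incubated 15 min at 37°C with inhibitors or metal cations, then Leu-AMC (5 mM final) added and activity measured after 60 min. Inhibitor levels: amastatin and bestatin 500 μM, EDTA and o-phenanthroline 5 or 1 mM, E-64, leupeptin and pepstatin A 100 μM, benzamidine and PMSF 40 μM, TLCK and TPCK 20 μM, pCMB 500 μM.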

fuLAP1 = fuLAP1 (Aspergillus fumigatus, UniProt Q5VJG6); type: biochemical; conditions: inhibitor 40 μM; Leu-MCA substrate
fuLAP1, sequence (Q5VJG6 15-388, looked up, natural form): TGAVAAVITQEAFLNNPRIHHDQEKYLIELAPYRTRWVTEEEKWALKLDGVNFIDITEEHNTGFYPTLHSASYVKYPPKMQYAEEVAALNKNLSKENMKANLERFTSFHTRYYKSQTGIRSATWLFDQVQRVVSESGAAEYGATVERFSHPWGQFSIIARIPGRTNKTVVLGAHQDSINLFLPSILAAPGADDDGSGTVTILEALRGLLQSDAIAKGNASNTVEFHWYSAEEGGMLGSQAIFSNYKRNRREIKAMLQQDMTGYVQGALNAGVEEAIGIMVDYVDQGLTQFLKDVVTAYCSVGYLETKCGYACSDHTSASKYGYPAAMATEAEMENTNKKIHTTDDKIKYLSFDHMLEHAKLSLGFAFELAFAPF
Method in brief: as §2

ruLAP1 = ruLAP1 (Trichophyton rubrum, UniProt Q5QHG5); type: biochemical; conditions: inhibitor 40 μM; Leu-MCA substrate
ruLAP1, sequence (Q5QHG5 19-373): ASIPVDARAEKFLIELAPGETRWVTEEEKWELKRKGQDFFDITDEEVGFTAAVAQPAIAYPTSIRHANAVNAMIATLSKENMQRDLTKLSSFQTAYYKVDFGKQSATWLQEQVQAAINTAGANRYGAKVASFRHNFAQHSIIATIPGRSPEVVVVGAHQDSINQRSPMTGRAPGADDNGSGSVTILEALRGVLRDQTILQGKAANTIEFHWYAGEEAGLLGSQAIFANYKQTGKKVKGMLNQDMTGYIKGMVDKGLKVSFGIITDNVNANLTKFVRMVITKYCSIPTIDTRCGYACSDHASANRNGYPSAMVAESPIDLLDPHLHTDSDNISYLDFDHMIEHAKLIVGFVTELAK
Method in brief: as §2

ruLAP2 = ruLAP2 (Trichophyton rubrum, UniProt Q5QHG6); type: biochemical; conditions: inhibitor 40 μM; Leu-MCA substrate
ruLAP2, sequence (Q5QHG6 22-495): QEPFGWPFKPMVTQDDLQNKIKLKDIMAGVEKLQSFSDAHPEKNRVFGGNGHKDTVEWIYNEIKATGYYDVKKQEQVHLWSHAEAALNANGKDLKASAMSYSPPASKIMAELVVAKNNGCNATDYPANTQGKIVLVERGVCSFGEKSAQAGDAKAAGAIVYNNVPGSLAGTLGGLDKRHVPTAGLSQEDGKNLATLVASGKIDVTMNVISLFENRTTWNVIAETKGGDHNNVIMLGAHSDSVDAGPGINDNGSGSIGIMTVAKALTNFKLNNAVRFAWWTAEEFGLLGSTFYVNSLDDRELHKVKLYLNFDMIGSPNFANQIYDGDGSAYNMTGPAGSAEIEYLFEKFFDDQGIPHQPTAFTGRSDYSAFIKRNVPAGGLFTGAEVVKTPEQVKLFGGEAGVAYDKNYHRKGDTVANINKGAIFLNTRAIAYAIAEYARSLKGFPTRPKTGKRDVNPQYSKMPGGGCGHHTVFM
Method in brief: as §2

[3] = system: T. rubrum secreted proteolytic activity; experiment: Inhibition of T. rubrum secreted proteolytic activity (resorufin-labeled casein); type: biochemical, Trichophyton rubrum; conditions: resorufin-labeled casein as substrate
Procedure: The proteolytic activity was measured using resorufin-labeled casein in phosphate buffer (20 mM; pH 7.4). The reaction mixture contained 0.02% substrate in a total volume of 0.5 ml. After incubation at 37° C., the undigested substrate was precipitated by trichloroacetic add (4% final concentration) and separated from the supernatant by centrifugation. The absorbance at 574 nm of the supernatant was measured after alkalinization by adding 500 μl Tris buffer (500 mM; pH 9.4). For practical purposes, one unit (U) of proteolytic activity was defined as that producing an absorbance of 0.001 per min.
T. rubrum was grown at 30° C. in a medium containing 0.2% soy protein as a sole carbon and nitrogen source. After 14 days of growth, a concomitant clarification of the culture medium was noted and a substantial proteolytic activity (400 U ml^−1) detected using resorufin-labeled casein as substrate. This proteolytic activity was 15% and 85% inhibited by PMSF and ortho-phenanthroline. respectively, attesting that serine and metalloproteases were secreted by T. rubrum. […] In addition, a high activity on substrates such as Leu-AMC and Leu-pNA was detected in the T. rubrum culture supernatant.

[4] = system: gliadin 14 mer PQPQLPYPQPQLPY; type: biochemical, wheat; conditions: 4 h, 37° C., 1 mM CoCl2, pH7.2
gliadin 33 mer = experiment: Digestion of gliadin 33 mer (RP-HPLC, ESI-MS); type: biochemical, wheat; conditions: 37° C., 1 mM CoCl2, pH7.2
desMet-G-CSF = experiment: Digestion of desMet-G-CSF with DPPIV; conditions: overnight 37° C., E/S 1/20 (w:w)
[5] = Enzymatic activity of T. rubrum AMPP at various pH values (FIG. 4); type: biochemical
Excerpt: FIG. 4 is a graph of the enzymatic activity of T. rubrum AMPP (aminopeptidase P) at various pH values. It appears that AMPP has activity over a broad range of pH values, from pH 6 to 11.

[6] = Enzymatic activity of T. rubrum AMPP at various temperatures (FIG. 5); type: biochemical
Excerpt: FIG. 5 is a graph of the enzymatic activity of T. rubrum AMPP at various temperatures.

With `O=S(=O)(F)Cc1ccccc1` [PMSF] the “fuLAP2 hydrolytic activity, percentage of control without inhibitor” value (fuLAP2) was 84%, the “pkLAP hydrolytic activity, percentage of control without inhibitor” value [1] was 58% and the “effect of inhibitor on all the LAPs tested” value [2] was “no clear inhibitory effects”. The “fuLAP1 hydrolytic activity, percentage of control without inhibitor” value (fuLAP1) was 156%, the “ruLAP1 hydrolytic activity, percentage of control without inhibitor” value (ruLAP1) was 78% and the “ruLAP2 hydrolytic activity, percentage of control without inhibitor” value (ruLAP2) was 79%. For the same molecule, the “inhibition of proteolytic activity” value [3] was 15%.

With “ruDPPIV: T. rubrum dipeptidylpeptidase IV, 775 amino acid residues (SEQ ID NO: 35)” the “digestion of the 14 mer” value [4] was “not able to hydrolyse the peptide”, the “digestion of the 33 mer” value (gliadin 33 mer) was “not a substrate” and the “cleavage of N-terminal dipeptide from desMet-G-CSF” value (desMet-G-CSF) was “Traces of undigested material are still present”.

B1: AMPP: T. rubrum aminopeptidase P (SEQ ID NO: 24) (protein, listed as Trichophyton rubrum)
chain: MPPPPVDTTQRLAKLRELMAQNKVDVYIVPSEDSHQSEYIAPCDGRRAFISSFTGSAGCAIVSMSKAALSTDGRYFSQAAKQLDANWILLKRGVEGVPTWEEWTAEQAETRQGCGSDARKLSQTLKTTGGSLVGIDQNLIDAVWGDERPARPANQITVQPVERAGKSFEEKVEDLRKELTAKKRSAMVISSKFLYKWYLSLYTKSHADWCSIPYNPVFFSYAIVTPSVAELYVDESKLSPEARKHLEGKVVLKPYESIFQASKVLAESKASASSGSSGKFLLSNKASWSLSLALGGEQNVVEVRSPITDAKAIKNEVELEGFRKCHIRDGAALIEYFAWLENALIKEGAKLDEVDGADKLFEIRKKYDLFVGNSFDTISSTGANGATIHYKPEKSTCAIIDPKAMYLCDSGGQYLDGTTDTTRTLHFGEPTEFQKKAYALVLKGHISIDNAIFPKGTTGYAIDSFARQHLWKEGLDYLHGTGHGVGSFLNVHEGPMGIGSRAQYAEVPLSASNSLDIMKTATSAFVSRVSSMTAYSSFFILTASLDLVICKEVQTAHKFGDKPFLGFESITLVPFCQKLLDASLLTEAERKWVNDYHAKVWEKTSPFFEKDELTTAWLKRETQPI
With B1 the “pH range of activity” value [5] was 6 to 11 pH, the optimal temperature [6] was 50 C and the “temperature range of activity” value [6] was 25 to 60 C.
